# Results from patent publication US10787512B2, “Melatonin monoclonal antibody, detection, methods and uses thereof” (SALIMETRICS, LLC, priority 2013, dated 2020).
# What was measured:
# [1] = system: rabbit monoclonal antibody to Melatonin; experiment: Cross reactivity in Rapid Melatonin ELISA (competitive, melatonin-HRP); format: binding; conditions: tested at 10 to 20-fold above the highest standard (50 pg/ml); predicted value as melatonin divided by actual concentration added
# Experimental: A microtitre plate (described below) is coated with the rabbit monoclonal antibody to Melatonin. Melatonin in standards and unknowns competes with Melatonin linked to horseradish peroxidase for the antibody binding sites. After incubation unbound components are washed away. Bound Melatonin peroxidase is measured by the reaction of the peroxidase enzyme on the substrate tetramethylbenzidine (TMB). This reaction produces a blue color. A yellow color is formed after stopping the reaction with 2-molar sulfuric acid. Optical density is read on a standard plate reader at 450 nm. The amount of Melatonin peroxidase detected is inversely proportional to the amount of Melatonin present.
# Microwell plates (CoStar High Binder) were coated overnight with 0.5 ug/ml goat anti-rabbit at room temperature [100 uL/well]; Coating Buffer-NaHCO3 (2.93 g)+Na2CO3 (1.59 g) in 1000 ml Water, pH 9.6 under controlled humidity. After washing the plates 3 times in a wash buffer comprised of PBS (phosphate buffered saline) with 0.05% Tween 20, the plates were then coated with the rabbit monoclonal at 10 ng/ml in PBS with 0.01% BSA (bovine serum albumin) overnight at room temperature under controlled humidity. The plates were again washed and coated with 0.5% Stabilcoat (Surmodics) containing 0.1% normal rabbit serum. After approximately 2 hours the plates were aspirated, dried and pouched.
# A primary dilution of Melatonin-HRP was made at 50 ug/ml in […]® Conjugate stabilizer (Pierce-Thermo) for storage. At the time of the assay, it is then diluted to 100 ng/ml in a phosphate or Tris Buffered Saline, pH 7.2 with 1% BSA (Diluent).
# Melatonin reference material from Cerilliant was diluted in diluent to 50 pg/ml. The standard curve was prepared by making 2× serial dilutions to 0.78 pg/ml in Diluent. Pipette: 100 ul Melatonin Standards/Samples/Controls to each well of the coated microwell plate. Pipette: 50 ul conjugate to each well. Incubate: 3 hr at 2-8° C. or Room Temperature with shaking (˜500 rpm). Wash: 4×300 uL, no soak. Pipette: 100 uL tetramethylbenzidine (TMB). Incubate: Room Temp for 30 min with shaking. Pipette: 50 uL 2M H2SO4. Mix 10-15 seconds. Read Plate: OD 450-630 nm.
# Chemical compounds with structural similarity to melatonin were tested at levels 10 to 20-fold higher than the highest standard (50 pg/ml) as samples. The predicted value (as melatonin) was divided by the actual concentration added to calculate % cross-reactivity.
# [2] = system: rabbit monoclonal antibody to Melatonin; experiment: Specificity of Salimetrics Salivary Melatonin kit, cross reactants spiked into saliva; format: binding; conditions: spiked into saliva up to 2000 pg/ml; melatonin EC50 (B/Bo=0.5) divided by cross reactant EC50
# Experimental: The Salimetrics™ Salivary Melatonin kit is a competitive immunoassay designed and validated for the quantitative measurement of salivary melatonin. The assay format and detection method are illustrated in FIG. 3, and are briefly summarized as follows: A microtitre plate is coated with rabbit monoclonal antibody to melatonin. Melatonin in standards, controls and unknowns compete with melatonin linked to horseradish peroxidase for the antibody binding sites on the microplate. After incubation, unbound components are washed away. Bound melatonin peroxidase is measured by the reaction of the horseradish peroxidase enzyme with the substrate tetramethylbenzidine (TMB). This reaction produces a blue color. A yellow color is formed after stopping the reaction with 2-molar acid solution. Optical density is read on a standard microplate reader at 450 nm-630 nm. The amount of melatonin-tagged peroxidase detected, as measured by the intensity of color, is inversely proportional to the amount of melatonin present in the sample.
# Step 2: Keep the desired number of strips in the strip holder and place the remaining strips back in the foil pouch. Reseal the foil pouch with unused wells and desiccant. Store at 2-8° C. […] Step 3: Pipette 8 ml of Melatonin Assay Diluent into a disposable tube. (Scale down proportionally if not using a full plate). Set aside for Step 5. Step 4: Pipette 100 μL, of standards, controls, and unknown samples into appropriate wells. Standards, controls, and unknown samples should be assayed in duplicate. • Pipette 100 μL, of Melatonin Assay Diluent into 2 wells for the 0 Standard. Step 5: Dilute the enzyme conjugate 1:500 by adding 16 μL of the conjugate to the 8 ml of melatonin assay diluent prepared in Step 3. (Scale down proportionally if not using the entire plate.) Conjugate tube may be centrifuged for a few minutes to bring the liquid down to the tube bottom. Immediately mix the diluted conjugate solution and add 50 μL to each well using a multichannel pipette. Step 6: Place adhesive cover (provided) over plate. Mix plate constantly on a plate rotator at 500 rpm and incubate at 2-8° C. for a total of 3 hours. Step 7: Wash the plate 4 times with 1× wash buffer. A plate washer is recommended. However, washing may be done by gently squirting wash buffer into each well with a squirt bottle, or by pipetting 300 μL, of wash buffer into each well and then discarding the liquid by inverting the plate over a sink. After each wash, the plate should be thoroughly blotted on paper towels before turning upright. If using a plate washer, blotting is still recommended after the last wash. Step 8: Add 100 μL of TMB substrate solution to each well with a multichannel pipette. Step 9: Incubate the plate in the dark at room temperature for 30 minutes mixing constantly on a plate rotator at 500 rpm. Step 10: Add 50 μL of 2M stop solution with a multichannel pipette. Step 11: Mix on a plate rotator for 3 minutes at 500 rpm. Spillage may occur if mixing speed exceeds 600 rpm. If green color remains, continue mixing until green color turns to yellow. Be sure all wells have turned yellow. • Wipe off bottom of plate with a water-moistened, lint-free cloth and wipe dry. • Read in a plate reader at 450 nm with a secondary filter at 620 to 630 nm. Performance characteristics are not known without secondary or reference filter. Read the plate within 10 minutes of adding 2M stop solution. High and Low salivary Melatonin controls should be run with each assay. The control ranges established are to be used as a guide. Each laboratory should establish its own range. Variations between laboratories may be caused by differences in techniques and instrumentation.
# Calculations • 1. Compute the average optical density (OD) for all duplicate wells. • 2. Calculate the percent bound (B/Bo) for each standard, control and unknown by dividing the OD of each well (B) by the average OD for the 0 (Bo). • 3. […]
# [3] = Storage stability of melatonin in saliva samples; format: physicochemical; conditions: after 4 days at 2-8° C.
# Experimental: Sample Handling and Preparation • After collection it is important to keep samples cold, to minimize bacterial growth in the specimen. Refrigerate sample within 30 minutes, and freeze at or below −20° C. within 4 hours of collection. […] On day of assay, thaw the saliva samples completely, vortex, and centrifuge at 1500×g (@3000 rpm) for 15 minutes. Centrifuging removes mucins and other particulate matter which may interfere with antibody binding, leading to falsely elevated results. Samples should be at room temperature before adding to assay plate. Pipette clear sample into appropriate wells. Re-freeze saliva samples as soon as possible after adding to the assay plate. Centrifuge/re-centrifuge saliva samples each time that they are thawed. Avoid more than 2 freeze-thaw cycles after the initial freeze/thaw.
Compound,Cross Reactivity (%) [1] [%],Cross Reactivity [2] [%],Decrease of Melatonin levels [3] [%]
COc1ccc2[nH]cc(CCN)c2c1 [5-methoxy tryptamine],<0.05,<0.05,–
COc1ccc2[nH]cc(CCO)c2c1 [5-methoxy tryptophol],1.30,1.25,–
COc1cc2c(CCNC(C)=O)c[nH]c2cc1Cl [6-chloro melatonin],5.40,5.40,–
COc1cc2c(CCNC(C)=O)c[nH]c2cc1O [6-hydroxy melatonin],<0.05,<0.05,–
"COc1ccc(NC=O)c(C(=O)CCNC(C)=O)c1 [AFMK, N^1-acetyl-N^2-formyl-5-methoxykynuramine]",16.5,16.5,–
Cn1c(=O)c2c(ncn2C)n(C)c1=O [Caffeine],<0.05,<0.05,–
N[C@@H](Cc1c[nH]c2ccccc12)C(=O)O [L-Tryptophan],<0.05,<0.05,–
"COc1ccc2[nH]cc(CCNC(C)=O)c2c1 [Melatonin, N-acetyl-5-methoxytryptamine]",–,–,≥ 20
CC(=O)NCCc1c[nH]c2ccc(O)cc12 [N-acetyl serotonin],<0.05,<0.05,–
NCCc1c[nH]c2ccc(O)cc12 [Serotonin],<0.05,<0.05,–
